Experiments:
[1] = system: PRTFDC1 gene expression in oral squamous-cell carcinoma cell lines not expressing the PRTFDC1 gene; assay: RT-PCR of PRTFDC1 gene expression after treatment with demethylating reagent or deacetylation inhibitory agent; format: cell-based; settings: oral squamous-cell carcinoma cells (NA, HSC-2, ZA)
Experimental: (d) Oral squamous-cell carcinoma cells (NA, HSC-2, and ZA) were treated (+) or not treated (−) with 5-aza-dCyd ([…]) for 5 days or with TSA ([…]) for 24 hours. The results of RT-PCR analysis on the PRTFDC1 gene in the oral squamous-cell carcinoma cells are shown.
To examine the expression levels of the 6 above genes (the PRTFDC1 gene, the e10orf6 gene, the THNSL1 gene, the GPR158 gene, the MYO3A gene, and the GAD2 gene), 18 types of oral squamous-cell carcinoma cell line and normal oral epithelium cells were subjected to reverse transcriptase (RT)-PCR. Specifically, a single-chain cDNA was synthesized from the RNA extracted from each cultured cell line using the SuperScript First-Strand Synthesis System (Invitrogen). PCR was then performed using primer sequences listed in Table 4 (supplementary Table 1). Moreover, a glyceraldehyde-3-phosphate dehydrogenase (GAPDH) gene was used as a control. As a result, complete disappearance of PRTFDC1 mRNA expression could be confirmed in 8 cell lines in which homozygous deletion of chromosomal region 10p12 should not have taken place, as in the case of HSC-6 cells (FIG. 2c). […] Such disappearance of PRTFDC1 mRNA expression in the oral squamous-cell carcinoma cell lines may be due to a mechanism other than genomic deletion, such as an epigenetic phenomenon.
To examine if the suppressed expression of the PRTFDC1 gene was due to DNA methylation, oral squamous-cell carcinoma cell lines not expressing the PRTFDC1 gene were treated using a 1 μM or 5 μM demethylating reagent 5—aza—dCyd for 5 days and/or using deacetylation inhibitory agent TSA (100 ng/ml) for 24 hours. RNAs were extracted from these cells and then PRTFDC1 gene expression was examined by RT-PCR (FIG. 2d).

[2] = system: CpG islands of the PRTFDC1 gene; assay: Demethylation of CpG islands by culturing oral squamous-cell carcinoma cells with demethylating reagent; format: cell-based; settings: oral squamous-cell carcinoma cells cultured in the presence of the reagent

Row | Structure (SMILES) | PRTFDC1 gene expression (RT-PCR) ([1]; TSA 100 ng/ml for 24 hours) | PRTFDC1 gene expression (RT-PCR) ([1]; 5-aza-dCyd 1 μM or 5 μM for 5 days) | PRTFDC1 gene expression (RT-PCR) ([1]; 5-aza-dCyd 1 μM or 5 μM for 5 days, listed as 5-azadeoxycytidine) | demethylation of CpG islands [2]
1 | CC(/C=C/C(=O)NO)=C\[C@@H](C)C(=O)c1ccc(N(C)C)cc1 [TSA] | no differences | – | – | –
2 | Nc1ncn([C@H]2C[C@H](O)[C@@H](CO)O2)c(=O)n1 [5-aza-dCyd, 5-azadeoxycytidine] | – | recovers its gene expression | possible to recover the expression level | possible to demethylate

Source: US20090011950A1, “METHOD FOR DETECTING ORAL SQUAMOUS-CELL CARCINOMA AND METHOD FOR SUPPRESSING THE SAME” (priority 2007, published 2009)
